Assay: on-resin side-chain-to-N-terminus lactamisation (lanthionine D-half alpha-COOH + N-terminal amine); PyAOP 5 eq, HOAt 5 eq, DIPEA 10 eq, after TBAF (Teoc/TMSE) and piperidine (Fmoc) removal; NovaSyn TGT low-loading resin
Details: the molecule shown is the open-chain precursor, DMF, 60.0 °C

Compound *OC(=O)[C@H](CCCCNC(=O)OC(C)(C)C)NC(=O)[C@H](CSC[C@@H](N)C(=O)O)NC(=O)CNC(=O)[C@@H]1CCCN1 has a ring closure, overall yield (13-membered ring, 3.1 h) of 7%.
With *OC(=O)[C@@H](NC(=O)[C@H](CSC[C@@H](N)C(=O)O)NC(=O)CNC(=O)[C@@H](N)CC(C)C)[C@@H](C)OC(C)(C)C the ring closure, overall yield (13-membered ring, 3.1 h) was 34%.
With *OC(=O)[C@H](CCCCNC(=O)OC(C)(C)C)NC(=O)[C@H](CS[C@@H](C)[C@@H](N)C(=O)O)NC(=O)CNC(=O)[C@@H]1CCCN1 the ring closure, overall yield (13-membered ring, 5.1 h) was 37%.
*OC(=O)[C@H](C)NC(=O)[C@H](CSC[C@@H](N)C(=O)O)NC(=O)[C@H](CC(C)C)NC(=O)[C@H](CSC(c1ccccc1)(c1ccccc1)c1ccccc1)NC(=O)[C@@H](N)[C@@H](C)CC gave a ring closure, overall yield (16-membered ring, 3.1 h) of 11%.
With *OC(=O)[C@H](C)NC(=O)[C@H](CSC[C@@H](N)C(=O)O)NC(=O)[C@H](CC(C)C)NC(=O)[C@H](COC(C)(C)C)NC(=O)[C@@H](N)CC(C)C the ring closure, overall yield (16-membered ring, 3.1 h) was 5%.
Work on *OC(=O)[C@H](C)NC(=O)[C@H](CSC[C@@H](N)C(=O)O)NC(=O)[C@H](CC(C)C)NC(=O)[C@H](C)NC(=O)[C@@H](N)CC(C)C yielded a ring closure, overall yield (16-membered ring, 3.1 h) of 3%.
For *OC(=O)[C@H](C)NC(=O)[C@H](CSC[C@@H](N)C(=O)O)NC(=O)[C@H](CC(C)C)NC(=O)[C@H](CSC(c1ccccc1)(c1ccccc1)c1ccccc1)NC(=O)[C@@H](N)CC(C)C, the ring closure, overall yield (16-membered ring, 3.1 h) was 15%.
